The source of these data is article PMC5509550, “Development of a Novel Lead that Targets M. tuberculosis Polyketide Synthase 13” (Cell, 2017).

The subject of assay [1] is TAM16-resistant Mtb mutants (Pks13 D1644G or D1644Y). Type of assay: cell-based, Mycobacterium tuberculosis.
The test system of a further assay is Mtb mc^27000. Type of assay: cell-based, Mycobacterium tuberculosis.

Values after ≈ are worked out from the molar mass of the structure shown.

Regarding `NNC(=O)c1ccncc1` [INH, Isoniazid], in assay [1], the “MIC against TAM16-resistant mutants” value came to 0.2 µM (≈ 0.0274 µg/mL). Further, in the assay on Mtb mc^27000, the “frequency of resistance observed for INH” value was 1 × 10^−6.

Turning to `CO[C@H]1/C=C/O[C@@]2(C)Oc3c(C)c(O)c4c(O)c(c(/C=N/N5CCN(C)CC5)c(O)c4c3C2=O)NC(=O)/C(C)=C\C=C\[C@H](C)[C@H](O)[C@@H](C)[C@@H](O)[C@@H](C)[C@H](OC(C)=O)[C@@H]1C` [RIF, Rifampicin], the “MIC against TAM16-resistant mutants” value in assay [1] turned out to be 0.04 µM (≈ 0.0329 µg/mL).
